Experimental data reported in patent publication US8415469B2, “Compounds and methods for kinase modulation, and indications therefor” (Plexxikon Inc., priority 2005, dated 2013).

What was measured:
Format in all cases: biochemical
FGFR1 = molecular target: T1, FGFR1 (Homo sapiens, UniProt P11362, C488A/C584S); assay: AlphaScreen kinase assay, FGFR1; details: read-out: IC50, activity toward kinase FGFR
T1 construct: P1351.pET N6 BI-PTP FGFR A458-E765-X C488A, C584S; made in house; host or cells: E. coli (PTP1B co-expressed)

Kit = molecular target: T2, Kit (Homo sapiens, UniProt P10721); assay: AlphaScreen kinase assay, Kit; details: read-out: IC50, activity toward kinase Kit
T2 construct: P1332.N6 BI PTP KIT M552-K948-X COD; His6 (N); made in house; host or cells: E. coli (PTP1B co-expressed)

Fms = molecular target: T3, Fms (Homo sapiens, UniProt P07333); assay: AlphaScreen kinase assay, Fms; details: read-out: IC50, activity toward kinase Fms
T3 construct: purchased Upstate Biotechnology

B-Raf V600E = molecular target: T4, B-Raf V600E (Homo sapiens, UniProt P15056, V600E); assay: AlphaScreen kinase assay, B-Raf V600E; details: read-out: IC50, activity toward kinase B-Raf V600E
T4 construct: P4254. pFastBacBD-CDC37 BRAF D437-K722-X, V600E; His6 with pFastBac HT leader (TEV site) (N); made in house; host or cells: Sf9 (baculovirus; chaperone CDC37 co-expressed)

B-Raf = molecular target: T5, B-Raf (Homo sapiens, UniProt P15056); assay: AlphaScreen kinase assay, B-Raf; details: read-out: IC50, activity toward kinase B-Raf
T5 construct: purchased Upstate Biotechnology
T5 sequence (P15056 whole entry): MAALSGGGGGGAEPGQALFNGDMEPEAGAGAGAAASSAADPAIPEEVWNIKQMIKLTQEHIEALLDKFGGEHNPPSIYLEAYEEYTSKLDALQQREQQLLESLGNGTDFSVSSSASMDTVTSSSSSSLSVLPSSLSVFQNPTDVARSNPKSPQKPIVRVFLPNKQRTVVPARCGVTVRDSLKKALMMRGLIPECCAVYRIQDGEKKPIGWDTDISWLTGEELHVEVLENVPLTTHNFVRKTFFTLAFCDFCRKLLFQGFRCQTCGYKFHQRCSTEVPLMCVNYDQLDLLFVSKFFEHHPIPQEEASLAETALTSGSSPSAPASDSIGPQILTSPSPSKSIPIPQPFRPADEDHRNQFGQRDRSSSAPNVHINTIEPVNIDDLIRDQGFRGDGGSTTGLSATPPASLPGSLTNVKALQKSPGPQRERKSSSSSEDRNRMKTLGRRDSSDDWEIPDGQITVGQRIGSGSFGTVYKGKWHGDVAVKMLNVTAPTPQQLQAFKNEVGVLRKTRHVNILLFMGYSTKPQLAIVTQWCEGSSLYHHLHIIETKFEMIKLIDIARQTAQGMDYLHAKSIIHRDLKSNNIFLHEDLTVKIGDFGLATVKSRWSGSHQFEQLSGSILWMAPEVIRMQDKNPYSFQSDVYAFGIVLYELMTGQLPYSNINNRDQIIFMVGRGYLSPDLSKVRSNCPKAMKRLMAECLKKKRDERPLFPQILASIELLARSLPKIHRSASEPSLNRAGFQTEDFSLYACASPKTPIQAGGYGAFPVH

T4 sequence (P15056 with tags, fused parts or gaps V600E): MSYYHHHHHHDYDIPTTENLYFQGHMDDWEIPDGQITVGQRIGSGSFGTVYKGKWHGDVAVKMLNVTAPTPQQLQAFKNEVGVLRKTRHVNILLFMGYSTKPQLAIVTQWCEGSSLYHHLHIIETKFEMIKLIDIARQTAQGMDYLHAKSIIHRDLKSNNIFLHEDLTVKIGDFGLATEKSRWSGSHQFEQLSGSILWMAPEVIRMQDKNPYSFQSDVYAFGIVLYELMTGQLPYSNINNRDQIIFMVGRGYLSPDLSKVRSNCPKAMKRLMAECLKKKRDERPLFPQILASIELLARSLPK
T2 sequence (P10721 with tags, fused parts or gaps): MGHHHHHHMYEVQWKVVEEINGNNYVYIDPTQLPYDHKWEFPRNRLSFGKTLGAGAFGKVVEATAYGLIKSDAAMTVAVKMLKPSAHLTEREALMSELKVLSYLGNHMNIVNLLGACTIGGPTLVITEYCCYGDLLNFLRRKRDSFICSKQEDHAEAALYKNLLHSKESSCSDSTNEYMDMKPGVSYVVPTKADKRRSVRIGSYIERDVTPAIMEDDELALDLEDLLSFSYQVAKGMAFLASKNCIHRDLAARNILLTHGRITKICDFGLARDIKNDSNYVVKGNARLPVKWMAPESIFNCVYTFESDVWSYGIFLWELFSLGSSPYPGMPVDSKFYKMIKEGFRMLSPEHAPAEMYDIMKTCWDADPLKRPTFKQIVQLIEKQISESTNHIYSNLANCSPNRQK
T3 sequence (P07333 20-972): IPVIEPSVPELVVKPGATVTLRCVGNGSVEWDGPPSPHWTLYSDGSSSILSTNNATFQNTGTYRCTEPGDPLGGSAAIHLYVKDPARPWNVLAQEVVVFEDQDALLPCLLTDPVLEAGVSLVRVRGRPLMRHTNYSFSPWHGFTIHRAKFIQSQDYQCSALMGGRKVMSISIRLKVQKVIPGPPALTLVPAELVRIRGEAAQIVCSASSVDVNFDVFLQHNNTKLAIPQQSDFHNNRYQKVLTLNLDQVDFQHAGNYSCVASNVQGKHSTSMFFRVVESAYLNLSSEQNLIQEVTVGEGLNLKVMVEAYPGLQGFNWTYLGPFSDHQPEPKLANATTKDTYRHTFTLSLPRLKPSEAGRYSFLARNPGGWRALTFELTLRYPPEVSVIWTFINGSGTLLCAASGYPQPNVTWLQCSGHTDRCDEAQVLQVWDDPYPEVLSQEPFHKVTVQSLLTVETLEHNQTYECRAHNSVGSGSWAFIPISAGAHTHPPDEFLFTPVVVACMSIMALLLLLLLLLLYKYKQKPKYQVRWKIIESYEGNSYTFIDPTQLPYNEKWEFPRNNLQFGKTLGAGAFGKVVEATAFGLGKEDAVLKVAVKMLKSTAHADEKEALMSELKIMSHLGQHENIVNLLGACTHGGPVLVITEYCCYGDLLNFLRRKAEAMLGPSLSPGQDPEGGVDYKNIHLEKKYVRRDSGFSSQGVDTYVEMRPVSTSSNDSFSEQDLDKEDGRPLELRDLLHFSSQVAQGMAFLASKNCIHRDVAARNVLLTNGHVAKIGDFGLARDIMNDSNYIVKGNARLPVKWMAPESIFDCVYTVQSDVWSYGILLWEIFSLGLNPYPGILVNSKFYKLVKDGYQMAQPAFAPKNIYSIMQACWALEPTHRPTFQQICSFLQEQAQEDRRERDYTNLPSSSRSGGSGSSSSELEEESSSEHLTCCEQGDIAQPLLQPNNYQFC
T1 sequence (P11362 458-765 C488A/C584S): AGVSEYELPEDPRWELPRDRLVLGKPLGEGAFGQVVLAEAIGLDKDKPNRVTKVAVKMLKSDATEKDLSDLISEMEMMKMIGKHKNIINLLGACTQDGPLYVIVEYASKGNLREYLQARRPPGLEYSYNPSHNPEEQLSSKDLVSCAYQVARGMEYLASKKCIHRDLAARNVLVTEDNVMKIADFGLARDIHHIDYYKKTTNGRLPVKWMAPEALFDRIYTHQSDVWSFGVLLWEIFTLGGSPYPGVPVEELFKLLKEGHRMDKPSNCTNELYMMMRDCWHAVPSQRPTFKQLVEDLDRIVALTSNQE

Compound: Clc1ccc(Cc2c[nH]c3ncccc23)cc1 [Compound P-0233]
- IC50 (FGFR1): ≤ 10 µM
- IC50 (Kit): ≤ 10 µM
- IC50 (Fms): ≤ 10 µM

Compound: COc1ccc(Cc2c[nH]c3ncc(-c4ccsc4)cc23)cc1OC [Compound P-0563]
- IC50 (FGFR1): ≤ 10 µM
- IC50 (Kit): ≤ 10 µM
- IC50 (Fms): ≤ 10 µM

Compound: CSc1nccc(-c2ccc(S(=O)(=O)NCc3c[nH]c4ncccc34)s2)n1 [Compound P-0854]
- IC50 (FGFR1): ≤ 10 µM
- IC50 (Kit): ≤ 10 µM
- IC50 (Fms): ≤ 10 µM

Compound: CCCC(=O)Nc1ccc(F)c(Cc2c[nH]c3ncc(OC)cc23)c1F [Compound P-1369]
- IC50 (FGFR1): ≤ 10 µM
- IC50 (Kit): ≤ 10 µM
- IC50 (B-Raf V600E): ≤ 10 µM
- IC50 (Fms): ≤ 10 µM

Compound: OC(c1c(F)ccc(OC(F)F)c1F)c1c[nH]c2ncc(Br)cc12 (centres unmarked) [Compound P-1525]
- IC50 (FGFR1): ≤ 10 µM
- IC50 (Kit): ≤ 10 µM
- IC50 (Fms): ≤ 10 µM

Compound: CS(=O)(=O)Nc1cccc(Nc2c[nH]c3ncccc23)c1 [Compound P-1498, N-[3-(1H-Pyrrolo[2,3-b]pyridin-3-ylamino)-phenyl]-methanesulfonamide]
- IC50 (Kit): ≤ 10 µM
- IC50 (Fms): ≤ 10 µM

Compound: COc1ccc(Nc2c[nH]c3ncccc23)cc1 [Compound P-1488, (4-Methoxy-phenyl)-(1H-pyrrolo[2,3-b]pyridin-3-yl)-amine]
- IC50 (Kit): ≤ 10 µM
- IC50 (Fms): ≤ 10 µM

Compound: O=C(Nc1cccc(C(=O)c2c[nH]c3ncc(-c4ccc(F)cc4)cc23)c1)Nc1cc(C(F)(F)F)ccc1Cl [Compound P-1752, 1-(2-Chloro-5-trifluoromethyl-phenyl)-3-{3-[5-(4-fluoro-phenyl)-1H-pyrrolo[2,3-b]pyridine-3-carbonyl]-phenyl}-urea]
- IC50 (B-Raf V600E): ≤ 10 µM
- IC50 (B-Raf): ≤ 10 µM

Compound: OC(c1c(F)ccc(N(Cc2ccccc2)Cc2ccccc2)c1F)c1c[nH]c2ncc(-c3cccnc3)cc12 (centres unmarked) [Compound P-1080]
- IC50 (B-Raf): ≤ 10 µM

Compound: CC(C)(C)OC(=O)N(Cc1ccc(Cl)cc1)c1ccc(C(O)c2c[nH]c3ncc(-c4cccnc4)cc23)cn1 (centres unmarked) [Compound P-0414]
- IC50 (B-Raf V600E): ≤ 10 µM
- IC50 (B-Raf): ≤ 10 µM

Compound: CS(=O)(=O)Nc1cccc(-c2cnc3[nH]cc(C(=O)c4cc(OC(F)F)cc(OC(F)F)c4)c3c2)c1 [Compound P-1522, N-{3-[3-(3,5-Bis-difluoromethoxy-benzoyl)-1H-pyrrolo[2,3-b]pyridin-5-yl]-phenyl}-methanesulfonamide]
- IC50 (FGFR1): ≤ 10 µM
- IC50 (Kit): ≤ 10 µM
- IC50 (Fms): ≤ 10 µM

Compound: COc1cccc(C(=O)c2c[nH]c3ncc(-c4cc(F)cc(F)c4)cc23)c1F [Compound P-1334, [5-(3,5-Difluoro-phenyl)-1H-pyrrolo[2,3-b]pyridin-3-yl]-(2-fluoro-3-methoxy-phenyl)-methanone]
- IC50 (FGFR1): ≤ 10 µM
- IC50 (Fms): ≤ 10 µM

Compound: c1ccc(CCc2c[nH]c3ncccc23)cc1 [Compound P-0200]
- IC50 (B-Raf V600E): ≤ 10 µM
- IC50 (B-Raf): ≤ 10 µM

Compound: O=C(c1cccc(C(F)(F)F)c1)c1c[nH]c2ncc(-c3cccnc3)cc12 [Compound P-1410, (5-Pyridin-3-yl-1H-pyrrolo[2,3-b]pyridin-3-yl)-(3-trifluoromethyl-phenyl)-methanone]
- IC50 (Kit): ≤ 10 µM
- IC50 (Fms): ≤ 10 µM

Compound: O=C(c1cccc(OC(F)F)c1)c1c[nH]c2ncc(-c3ccccc3)cc12 [Compound P-1409, (3-Difluoromethoxy-phenyl)-(5-phenyl-1H-pyrrolo[2,3-b]pyridin-3-yl)-methanone]
- IC50 (FGFR1): ≤ 10 µM
- IC50 (Kit): ≤ 10 µM
- IC50 (B-Raf V600E): ≤ 10 µM
- IC50 (Fms): ≤ 10 µM

Compound: COc1cccc(C(=O)c2c[nH]c3ncc(-c4ccc(Cl)cc4)cc23)c1F [Compound P-1333, [5-(4-Chloro-phenyl)-1H-pyrrolo[2,3-b]pyridin-3-yl]-(2-fluoro-3-methoxy-phenyl)-methanone]
- IC50 (FGFR1): ≤ 10 µM
- IC50 (Fms): ≤ 10 µM

Compound: Oc1cccc(Nc2ccnc3[nH]ccc23)c1 [Compound P-0980]
- IC50 (B-Raf V600E): ≤ 10 µM
- IC50 (B-Raf): ≤ 10 µM

Compound: COc1cccc(Cc2c[nH]c3ncc(-c4cccc(C(F)(F)F)c4)cc23)c1F [Compound P-1325, 3-(2-Fluoro-3-methoxy-benzyl)-5-(3-trifluoromethyl-phenyl)-1H-pyrrolo[2,3-b]pyridine]
- IC50 (FGFR1): ≤ 10 µM
- IC50 (Fms): ≤ 10 µM

Compound: CCCS(=O)(=O)Nc1ccc(F)c(C(=O)c2c[nH]c3ncc(Br)cc23)c1 [Compound P-1431]
- IC50 (B-Raf): ≤ 10 µM

Compound: CCCS(=O)(=O)Nc1ccc(F)c(Cc2c[nH]c3ncc(N4CCC(C)CC4)cc23)c1F [Compound P-0984, Propane-1-sulfonic acid {2,4-difluoro-3-[5-(4-methyl-piperidin-1-yl)-1H-pyrrolo[2,3-b]pyridin-3-ylmethyl]-phenyl}-amide]
- IC50 (B-Raf V600E): ≤ 10 µM
- IC50 (B-Raf): ≤ 10 µM

Compound: Cc1nc(NCc2ccc(Cl)cc2)ccc1Cc1c[nH]c2ncccc12 [Compound P-0927]
- IC50 (FGFR1): ≤ 10 µM
- IC50 (B-Raf V600E): ≤ 10 µM
- IC50 (Fms): ≤ 10 µM

Compound: COc1cccc(Cc2c[nH]c3ncc(-c4cccc(Cl)c4)cc23)c1F [Compound P-1326, 5-(3-Chloro-phenyl)-3-(2-fluoro-3-methoxy-benzyl)-1H-pyrrolo[2,3-b]pyridine]
- IC50 (FGFR1): ≤ 10 µM
- IC50 (Fms): ≤ 10 µM

Compound: FC(F)(F)Oc1cccc(Nc2c[nH]c3ncccc23)c1 [Compound P-1493, (1H-Pyrrolo[2,3-b]pyridin-3-yl)-(3-trifluoromethoxy-phenyl)-amine]
- IC50 (Kit): ≤ 10 µM
- IC50 (Fms): ≤ 10 µM

Compound: COc1cccc(C(=O)c2c[nH]c3ncc(-c4cccc(OC(F)(F)F)c4)cc23)c1F [Compound P-1344, (2-Fluoro-3-methoxy-phenyl)-[5-(3-trifluoromethoxy-phenyl)-1H-pyrrolo[2,3-b]pyridin-3-yl]-methanone]
- IC50 (FGFR1): ≤ 10 µM
- IC50 (Fms): ≤ 10 µM

Compound: COc1cccc(Cc2c[nH]c3ncc(-c4cccc(F)c4)cc23)c1F [Compound P-1327, 3-(2-Fluoro-3-methoxy-benzyl)-5-(3-fluoro-phenyl)-1H-pyrrolo[2,3-b]pyridine]
- IC50 (FGFR1): ≤ 10 µM
- IC50 (Fms): ≤ 10 µM

Compound: Fc1ccccc1Cc1c[nH]c2ncc(Br)cc12 [Compound P-1342]
- IC50 (FGFR1): ≤ 10 µM
- IC50 (Fms): ≤ 10 µM

Compound: Clc1cccc(Cl)c1Cc1c[nH]c2ncccc12 [Compound P-1483, 3-(2,6-Dichloro-benzyl)-1H-pyrrolo[2,3-b]pyridine]
- IC50 (Kit): ≤ 10 µM
- IC50 (Fms): ≤ 10 µM

Compound: COC(=O)c1cccc(Nc2ccnc3[nH]ccc23)c1 [Compound P-0932]
- IC50 (B-Raf): ≤ 10 µM

Compound: Cc1ccc(S(=O)(=O)Nc2ccc(F)c(C(=O)c3c[nH]c4ncc(Cl)cc34)c2F)cc1F [Compound P-1823, N-[3-(5-Chloro-1H-pyrrolo[2,3-b]pyridine-3-carbonyl)-2,4-difluoro-phenyl]-3-fluoro-4-methyl-benzenesulfonamide]
- IC50 (B-Raf V600E): ≤ 10 µM
- IC50 (B-Raf): ≤ 10 µM

Compound: c1ccc(Oc2ccccc2Nc2c[nH]c3ncccc23)cc1 [Compound P-1501, (2-Phenoxy-phenyl)-(1H-pyrrolo[2,3-b]pyridin-3-yl)-amine]
- IC50 (Kit): ≤ 10 µM
- IC50 (Fms): ≤ 10 µM

Compound: Clc1ccc(CNc2ccc(Cc3c[nH]c4ncc(Br)cc34)cn2)cc1 [Compound P-0420]
- IC50 (FGFR1): ≤ 10 µM
- IC50 (B-Raf V600E): ≤ 10 µM
- IC50 (Fms): ≤ 10 µM

Compound: COc1cccc(C(=O)c2c[nH]c3ncc(-c4cccc(Cl)c4)cc23)c1F [Compound P-1332, [5-(3-Chloro-phenyl)-1H-pyrrolo[2,3-b]pyridin-3-yl]-(2-fluoro-3-methoxy-phenyl)-methanone]
- IC50 (FGFR1): ≤ 10 µM
- IC50 (Fms): ≤ 10 µM

Compound: COc1cc(Nc2c[nH]c3ncccc23)cc(OC)c1 [Compound P-1503, (3,5-Dimethoxy-phenyl)-(1H-pyrrolo[2,3-b]pyridin-3-yl)-amine]
- IC50 (Kit): ≤ 10 µM
- IC50 (Fms): ≤ 10 µM
